From patent publication US9155715B2, “Transdermal composition comprising tolterodine” (SK Chemicals Co., Ltd., priority 2009, dated 2015)

Key:
Assay type in all cases: physicochemical
[1] = Stress decomposition test of tolterodine under acidic/basic/oxidizing conditions; settings: for Total decomposed substances (peak area ratio of decomposed substances of tolterodine): 24 hours, HPLC
Protocol: Tolterodine free base (20 mg) was added respectively to three 100 mL flasks. Each of the above flasks was then added with 0.1 M HCl (5 mL), 0.1 M NaOH (5 mL) and 0.3% H2O2 solution (5 mL), respectively, added with methanol to a final volume of 20 mL and was subjected to ultrasonic extraction for 10 minutes.
Each sample was allowed to stand at room temperature for 24 hours and decomposed substances of tolterodine were quantitated by HPLC as follows.
(§1) [Analytical Method] • Test solution: tolterodine (−0.5 mg/mL) • Mobile phase: 45:55 mixture solution of ammonium dihydrogen phosphate and methanol, pH 7.0 • HPLC condition: detector 220 nm, column ODS3 C-18

[2] = Stress decomposition test of tolterodine under heat conditions
Protocol: as §1
Tolterodine free base (25-30 mg) was weighed and added into four glass bottles which were then capped with plugs. Three of the glass bottles were placed in an oven preheated at 120° C. At 10 minutes, 20 minutes and 30 minutes, each glass bottle was taken out from the oven and was allowed to cool enough at room temperature. After adding methanol (100 mL) to the four glass bottles followed by ultrasonic extraction for 10 minutes, decomposed substances of tolterodine were quantitated by HPLC as in Reference Example 1.

[3] = Screening of antioxidant (tolterodine decomposition in H2O2 solution); settings: 25° C., 100 rpm, 2.5 days
Protocol: as §1
Tolterodine free base (500 mg) was mixed with ethanol (50 mL) in a 100 mL flask and 0.3% H2O2 solution was added thereto to a final volume of 100 mL.
Antioxidant, weighed 10 mg each, was added into two glass bottles. One bottle contained tolterodine and the antioxidant, while the other bottle contained only the antioxidant, which was prepared to exclude the peaks resulting from the decomposition of the antioxidant by H2O2.
Tolterodine solution (2 mL) or a 1:1 mixture solution of 0.3% H2O2 aqueous solution and ethanol (2 mL) were added to the two glass bottles containing the antioxidant. The bottles were agitated at 100 rpm and 25° C. for 2.5 days.

[4] = tolterodine in ethanol/0.3% H2O2 with 10 mg of the named antioxidant

| Total decomposed substances (peak area ratio of decomposed substances of tolterodine) [3, 4] | SMILES | other results |
| --- | --- | --- |
| 1.94% | CCCCCCCCCCCCCCCC(=O)OC[C@H](O)[C@H]1OC(=O)C(O)=C1O [l-Ascorbic acid 6-palmitate] | – |
| 13.00% | CCOC(=O)c1cc(O)c(O)c(O)c1 [Ethyl gallate] | – |
| 1.46% | O=C(O)CC(O)(CC(=O)O)C(=O)O [Citric acid] | – |
| 19.94% | CCCCCCCCCCCCOC(=O)c1cc(O)c(O)c(O)c1 [Lauryl gallate] | – |
| 1.39% | O=C(O)CC(O)C(=O)O (racemic) [d,l-Malic acid] | – |
| 15.97% | CCCCCCCCOC(=O)c1cc(O)c(O)c(O)c1 [n-Octyl gallate] | – |
| 1.21% | O=C1O[C@H]([C@@H](O)CO)C(O)=C1O [l-Ascorbic acid] | – |
| 20.29% | Cc1c(C)c2c(c(C)c1O)CCC(C)(CCCC(C)CCCC(C)CCCC(C)C)O2 (stereo not drawn) [d,l-α-Tocopherol] | – |

Continued, compound first:

| SMILES | Total decomposed substances (peak area ratio of decomposed substances of tolterodine) [3, 4] | other results |
| --- | --- | --- |
| Cc1ccc(O)c([C@H](CCN(C(C)C)C(C)C)c2ccccc2)c1 [tolterodine] | – | Total decomposed substances (peak area ratio of decomposed substances of tolterodine) ([1]; 0.1M HCl, room temperature): 0.59%; Total decomposed substances (peak area ratio of decomposed substances of tolterodine) ([1]; 0.1M NaOH, room temperature): 0.83%; Total decomposed substances (peak area ratio of decomposed substances of tolterodine) ([1]; 0.3% H2O2, room temperature): 4.74%; Production of decomposed substances of tolterodine under stress conditions (in words) ([1]; harsh oxidizing condition, compared with acid, base and heat): Much of decomposed substances of tolterodine were produced; Total decomposed substances (peak area ratio of decomposed substances of tolterodine) ([2]; 120° C./0 min): 0.45%; Total decomposed substances (peak area ratio of decomposed substances of tolterodine) ([2]; 120° C./10 min): 0.59%; Total decomposed substances (peak area ratio of decomposed substances of tolterodine) ([2]; 120° C./20 min): 0.63%; Total decomposed substances (peak area ratio of decomposed substances of tolterodine) ([2]; 120° C./30 min): 0.78%; Total decomposed substances (peak area ratio of decomposed substances of tolterodine) ([3]; tolterodine in ethanol/0.3% H2O2, antioxidant: None): 26.08% |
| O=C([O-])CN(CCN(CC(=O)[O-])CC(=O)[O-])CC(=O)[O-].[Ca+2].[Na+].[Na+] [Ethylenediaminetetraacetic acid calcium disodium salt] | 29.69% | – |
| O=S([O-])([O-])=S.[Na+].[Na+] [Sodium thiosulfate] | 1.94% | – |
| O=C(O)C(O)C(O)C(=O)O (stereo not drawn) [l-Tartaric acid] | 1.44% | – |
| Cl.N[C@@H](CS)C(=O)O [l-Cysteine HCl] | – | Total decomposed substances (peak area ratio of decomposed substances of tolterodine) ([3]; tolterodine in ethanol/0.3% H2O2 with 10 mg of the named antioxidant, HCl): 1.70% |
| CC(=O)Oc1c(C)c(C)c2c(c1C)CC[C@@](C)(CCC[C@H](C)CCC[C@H](C)CCCC(C)C)O2 [(+)-α-Tocopherol acetate] | 23.56% | – |
| N[C@@H](CCC(=O)O)C(=O)O [l-Glutamic acid] | 1.52% | – |
| O=S([O-])[O-].[Na+].[Na+] [Sodium sulfite] | 5.67% | – |
| Cc1cc(C(C)(C)C)c(O)c(C(C)(C)C)c1 [Butylated hydroxytoluene (BHT), Butylated hydroxytoluene] | 18.82% | – |
| COc1ccc(O)c(C(C)(C)C)c1 [Butylated hydroxyanisole (BHA), Butylated hydroxyanisole] | 23.87% | – |
